Measurements published in US20240199647A1, “ANTI-VIRAL COMPOUNDS” (Aligos Therapeutics, Inc., priority 2022, published 2024).
Like-named read-outs stand apart in the source and are kept apart here.

Tests used:
[1] = target: SARS-Cov-2 3CLpro (Severe acute respiratory syndrome coronavirus 2, UniProt P0DTD1); test: biochemical; details: Table A, read-out: SARS-Cov-2 (IC50)
[2] = test system: SARS-CoV-2 B.1.1.7 lineage; test: microbe, parasite or virus in culture; type: cell-based; details: Severe acute respiratory syndrome coronavirus 2, Table C, SARS-CoV-2 B.1.1.7 in A549-dual_ACE2_TMPRSS2 cells, read-out: A549-dual_ACE2_TMPRSS2 (EC50)
[3] = in vitro; details: human

| SMILES | IC50 ([1]; cells given as a bound) [nM] | EC50 ([2]; class symbols) [nM] | IC50 ([1]; class symbols) [nM] | CC50 [3] [nM] | EC50 ([2]; cells given as a bound) [nM] |
| --- | --- | --- | --- | --- | --- |
| CN(C(=O)[C@H](CC1CC1)NC(=O)C(F)(F)F)[C@@H](CC1CC1)C(=O)N1C[C@@]2(C[C@@H]1C#N)C(=O)NCc1ccccc12 (single isomer, unassigned) [Compound 123] | > 2000 |  |  |  |  |
| CC(C)C[C@@H](C(=O)N1C[C@@]2(CCCNC2=O)C[C@H]1C#N)N(C)C(=O)[C@H](C)NC(=O)C(F)(F)F [Compound 9, (S)—N—((S)-1-((3S,5R)-3-cyano-6-oxo-2,7-diazaspiro[4.5]decan-2-yl)-4-methyl-1-oxopentan-2-yl)-N-methyl-2-(2,2,2-trifluoroacetamido)propanamide] |  | 1000 to 10000 | 20000 to 100000 | > 1000 |  |
| CC(C)C[C@@H](C(=O)N1C[C@]2(C[C@H]1C#N)C(=O)NC(=O)N2C)N(C)C(=O)[C@H](C)NC(=O)C(F)(F)F [Compound 10, (S)—N—((S)-1-((5R,8S)-8-cyano-1-methyl-2,4-dioxo-1,3,7-triazaspiro[4.4]nonan-7-yl)-4-methyl-1-oxopentan-2-yl)-N-methyl-2-(2,2,2-trifluoroacetamido)propanamide] |  | 1000 to 10000 | 200 to 2000 | > 1000 |  |
| CC(C)C[C@@H](C(=O)N1C[C@@]2(C[C@H]1C#N)Oc1ccc(F)cc1NC2=O)N(C)C(=O)[C@H](C)NC(=O)C(F)(F)F [Compound 14a, (S)—N—((S)-1-((2R,5'S)-5′-cyano-6-fluoro-3-oxo-3,4-dihydrospiro[benzo[b][1,4]oxazine-2,3′-pyrrolidin]-1′-yl)-4-methyl-1-oxopentan-2-yl)-N-methyl-2-(2,2,2-trifluoroacetamido)propanamide] |  | 100 to 1000 |  | > 1000 |  |
| CC(C)C[C@H](C(=O)N1C[C@@]2(C[C@H]1C#N)Oc1ccc(F)cc1NC2=O)N(C)C(=O)[C@H](C)NC(=O)C(F)(F)F [Compound 14b, (S)—N—((R)-1-((2R,5'S)-5′-cyano-6-fluoro-3-oxo-3,4-dihydrospiro[benzo[b][1,4]oxazine-2,3′-pyrrolidin]-1′-yl)-4-methyl-1-oxopentan-2-yl)-N-methyl-2-(2,2,2-trifluoroacetamido)propanamide] |  |  |  | > 1000 | > 1000 |
| C[C@H](NC(=O)C(F)(F)F)C(=O)N[C@@H](CC(C)(C)C)C(=O)N1C[C@@]2(C[C@H]1C#N)Oc1cc(F)cc(F)c1NC2=O [Compound 68] |  |  | 20 to 200 | > 1000 | > 1000 |
| [2H]C([2H])([2H])N(C(=O)[C@H](C)NC(=O)C(F)(F)F)[C@@H](CC(C)C)C(=O)N1C[C@@]2(C[C@H]1C#N)Oc1cc(F)cc(F)c1NC2=O [Compound 109] |  | 100 to 1000 | < 20 | > 1000 |  |
| CN(C(=O)[C@@H](CC1CCCCC1)NC(=O)C(F)(F)F)[C@@H](CC1CC1)C(=O)N1C[C@@]2(C[C@H]1C#N)Oc1cccnc1NC2=O [Compound 145] |  | < 100 | < 20 | > 1000 |  |
| CC([C@H](NC(=O)C(F)(F)F)C(=O)N(C)[C@@H](CC1CC1)C(=O)N1C[C@@]2(C[C@H]1C#N)Oc1cccnc1NC2=O)C(C)(C)C (stereo partly drawn) [Compound 234] |  |  | < 20 |  |  |
| C[C@H](NC(=O)C(F)(F)F)C(=O)N(C)[C@@H](CC1CC1)C(=O)N1C[C@@]2(C[C@H]1C#N)Oc1c(cccc1OC(F)(F)F)NC2=O [Compound 235] |  |  | < 20 |  |  |
| CN(C(=O)[C@H](CCCN)NC(=O)C(F)(F)F)[C@@H](CC1CC1)C(=O)N1C[C@@]2(C[C@H]1C#N)Oc1cccnc1NC2=O [Compound 236] |  |  | < 20 |  |  |
| CN(C(=O)c1cc2ccccc2c(=O)[nH]1)[C@@H](CC1CC1)C(=O)N1C[C@@]2(C[C@H]1C#N)Oc1cccnc1NC2=O [Compound 237] |  |  | 200 to 2000 |  |  |
| CN(C(=O)[C@H](CC1CC1)NC(=O)C(F)(F)Cl)[C@@H](CC1CC1)C(=O)N1C[C@@]2(C[C@H]1C#N)Oc1ncccc1NC2=O [Compound 238] |  |  | < 20 |  |  |
| CO[C@H](C)[C@H](NC(=O)C(F)(F)F)C(=O)N(C)[C@@H](CC1CC1)C(=O)N1C[C@@]2(C[C@H]1C#N)Oc1cccnc1NC2=O [Compound 239] |  |  | < 20 |  |  |
| CO[C@H](C)[C@H](NC(=O)C(F)(F)F)C(=O)N(C)[C@@H](CC1CC1)C(=O)N1C[C@@]2(C[C@H]1C#N)Oc1ncccc1NC2=O [Compound 240] |  |  | < 20 |  |  |
